# Measurements taken from patent US20240148821A1, “PHARMACEUTICAL USE OF CYCLIC PEPTIDE COMPOUND” (CHUGAI SEIYAKU KABUSHIKI KAISHA, priority 2021, published 2024).
# pIC50: −log10 of the molar value. Numbered stars: 1 amine (or outer) side, 2 acyl side, 3 side chain; on linkers, the order of the positions; unused ones are H or OH. Bridge positions count the residues as written; N and C are the ends. Square brackets hold non-standard residues; d marks the D form. Peptide text beside a SMILES is read from it. * marks the point of attachment. hPhe(3-Cl-4-CF3) = N[C@@H](CCc1ccc(C(F)(F)F)c(Cl)c1)C(=O)O; hPhe(3-F,4-CF3) = N[C@@H](CCc1ccc(C(F)(F)F)c(F)c1)C(=O)O; NMePhe(3-Cl) = CN[C@@H](Cc1cccc(Cl)c1)C(=O)O; NMePhe(4-Cl) = CN[C@@H](Cc1ccc(Cl)cc1)C(=O)O; NMePhe(4-Me) = CN[C@@H](Cc1ccc(C)cc1)C(=O)O; NMePhe(3-F) = CN[C@@H](Cc1cccc(F)c1)C(=O)O; NMePhe(4-F) = CN[C@@H](Cc1ccc(F)cc1)C(=O)O; NMeMet(O2) = CN[C@@H](CCS(C)(=O)=O)C(=O)O; NMedβ3hAla = C[C@H](CC(=O)[*:2])N(C)[*:1]; NMeGly(cPent) = CN[C@H](C(=O)O)C1CCCC1; Phe(3-I) = N[C@@H](Cc1cccc(I)c1)C(=O)O; Phe(4-Me) = Cc1ccc(C[C@H](N)C(=O)O)cc1; NMeGly(cBu) = CN[C@H](C(=O)O)C1CCC1; NMeCha = CN[C@@H](CC1CCCCC1)C(=O)O; NMeChg = CN[C@H](C(=O)O)C1CCCCC1; NMeE = CN[C@@H](CCC(=O)O)C(=O)O; NMeD = CN[C@@H](CC(=O)O)C(=O)O; NMeL = CN[C@@H](CC(C)C)C(=O)O; NMehSer = CN[C@@H](CCO)C(=O)O; NEtAla = CCN[C@@H](C)C(=O)O; NMeNva = CCC[C@H](NC)C(=O)O; NMeV = CN[C@H](C(=O)O)C(C)C; d(β3hA) = C[C@@H](N)CC(=O)O; Iva = CC[C@](C)(N)C(=O)O; NMeA = CN[C@@H](C)C(=O)O; NMeAib = CNC(C)(C)C(=O)O; Piperidide = C1CCN(*)CC1; Ac5c = NC1(C(=O)O)CCCC1; Aze = O=C(O)[C@@H]1CCN1; Sar = CNCC(=O)O
# Tested on: Human pancreatic cancer cell line AsPC-1 (G12D mutation Kras)
# Assay: AsPC-1 cell growth inhibition (AsPC-1 CGI)
# Format: cell-based
# Details: read-out: AsPC-1 cell growth inhibition, 50% growth inhibitory concentration (IC50 value); 96 hours, CellTiter-Glo, values classified in ranges
# Experimental: Test compounds were serially dilated with dimethyl sulfoxide, and 200 nL was then dispensed to a U-bottom 96-well plate using Labcyte Echo. […] The cell suspension was dispensed to a. plate containing a test compound at 100 μL per well and incubated at 37° C. in a 5% carbon dioxide gas incubator. 96 hours later, 80 μL of CellTiter-Glo (Promega) was added to each well and fluorescence was measured.
row,SMILES,pIC50
1,CC[C@H](C)[C@@H]1NC(=O)[C@H](C)N(C)C(=O)C[C@@H](C)NC(=O)[C@H](C2CCCC2)N(C)C(=O)C2(CCCC2)NC(=O)[C@@H]2CCCN2C(=O)[C@H](CCc2ccc(C(F)(F)F)c(Cl)c2)NC(=O)CN(C)C(=O)[C@H](Cc2ccc(F)cc2)N(C)C(=O)[C@@H]2CCCN2C(=O)CN(C)C1=O [Compound 146] (cyclo([Ac5c][NMeGly(cPent)][d(β3hA)][NMeA]I[Sar]P[NMePhe(4-F)][Sar][hPhe(3-Cl-4-CF3)]P)),< 6.30
2,COC[C@@H]1NC(=O)[C@H](CC(C)C)N(C)C(=O)C[C@@H](C(=O)N2CCCCC2)N(C)C(=O)[C@H](C2CCCCC2)N(C)C(=O)C2(CCCC2)NC(=O)[C@@H]2CCCN2C(=O)[C@H](CCc2ccc(C(F)(F)F)c(Cl)c2)NC(=O)CN(C)C(=O)[C@H](CC2CCCCC2)N(C)C(=O)CN(C)C(=O)CN(C)C1=O [Compound 148] ([NMeL]S(Me)[Sar][Sar][NMeCha][Sar][hPhe(3-Cl-4-CF3)]P[Ac5c][NMeChg][NMeD]-Piperidide; lactam N-11),< 6.30
3,CC[C@H](C)[C@@H]1NC(=O)[C@H](CC(C)C)N(C)C(=O)C[C@@H](C)NC(=O)[C@H](C(C)C)N(C)C(=O)[C@](C)(CC)NC(=O)[C@@H]2CCCN2C(=O)[C@H](CCc2ccc(C(F)(F)F)c(Cl)c2)NC(=O)CN(C)C(=O)[C@H](CC2CCCCC2)N(C)C(=O)CN(C)C(=O)CN(C)C1=O [Compound 149] (cyclo(I[Sar][Sar][NMeCha][Sar][hPhe(3-Cl-4-CF3)]P[Iva][NMeV][d(β3hA)][NMeL])),< 6.30
4,CC[C@H](C)[C@@H]1NC(=O)[C@H](C(C)C)N(C)C(=O)C[C@@H](C)NC(=O)[C@H](CC(C)C)N(C)C(=O)C2(CCCC2)NC(=O)[C@H](CC(C)C)N(C)C(=O)[C@H](CCc2ccc(C(F)(F)F)c(Cl)c2)NC(=O)CN(C)C(=O)[C@H](Cc2ccc(Cl)cc2)N(C)C(=O)[C@@H]2CCN2C(=O)CN(C)C1=O [Compound 158] (cyclo([Ac5c][NMeL][d(β3hA)][NMeV]I[Sar][Aze][NMePhe(4-Cl)][Sar][hPhe(3-Cl-4-CF3)][NMeL])),< 6.30
5,CC[C@H](C)[C@@H]1NC(=O)[C@H](CC(C)C)N(C)C(=O)C[C@@H](C(=O)N2CCCCC2)N(C)C(=O)[C@H](C2CCCCC2)N(C)C(=O)C2(CCCC2)NC(=O)[C@@H]2CCCN2C(=O)[C@H](CCc2ccc(C(F)(F)F)c(Cl)c2)NC(=O)CN(C)C(=O)[C@H](CCOC)N(C)C(=O)CN(C)C(=O)CN(C)C1=O [Compound 159] ([NMeL]I[Sar][Sar][NMehSer](Me)[Sar][hPhe(3-Cl-4-CF3)]P[Ac5c][NMeChg][NMeD]-Piperidide; lactam N-11),< 6.30
6,CC[C@H](C)[C@@H]1NC(=O)[C@H](CC(C)C)N(C)C(=O)C[C@@H](C(=O)N2CCCCC2)N(C)C(=O)[C@H](CCS(C)(=O)=O)N(C)C(=O)C2(CCCC2)NC(=O)[C@@H]2CCCN2C(=O)[C@H](CCc2ccc(C(F)(F)F)c(Cl)c2)NC(=O)CN(C)C(=O)[C@H](CC2CCCCC2)N(C)C(=O)CN(C)C(=O)CN(C)C1=O [Compound 162] ([NMeL]I[Sar][Sar][NMeCha][Sar][hPhe(3-Cl-4-CF3)]P[Ac5c][NMeMet(O2)][NMeD]-Piperidide; lactam N-11),< 6.30
7,CC[C@H](C)[C@@H]1NC(=O)[C@H](CC(C)C)N(C)C(=O)C[C@@H](C(=O)N2CCCCC2)N(C)C(=O)[C@H](CC(C)C)NC(=O)C(C)(C)N(C)C(=O)[C@H](Cc2ccc(C)cc2)NC(=O)[C@H](Cc2cccc(I)c2)NC(=O)CN(C)C(=O)[C@H](CC2CCCCC2)N(C)C(=O)CN(C)C(=O)CN(C)C1=O [Compound 166] ([NMeL]I[Sar][Sar][NMeCha][Sar][Phe(3-I)][Phe(4-Me)][NMeAib]L[NMeD]-Piperidide; lactam N-11),< 6.30
8,CC[C@H](C)[C@@H]1NC(=O)[C@H](CC(C)C)N(C)C(=O)C[C@@H](C(=O)N2CCCCC2)N(C)C(=O)[C@H](CC(C)C)NC(=O)C(C)(C)N(C)C(=O)[C@H](Cc2ccc(OC)cc2)NC(=O)[C@H](Cc2cccc(I)c2)NC(=O)CN(C)C(=O)[C@H](CC2CCCCC2)N(C)C(=O)[C@@H]2CCN2C(=O)[C@H](C)N(C)C1=O [Compound 169] ([NMeL]I[NMeA][Aze][NMeCha][Sar][Phe(3-I)]Y(Me)[NMeAib]L[NMeD]-Piperidide; lactam N-11),< 6.30
9,"CC[C@H](C)[C@@H]1NC(=O)[C@H](CC(C)C)N(C)C(=O)C[C@@H](C)N(C)C(=O)[C@H](CC(C)C)NC(=O)C(C)(C)N(C)C(=O)[C@H](CC(C)C)NC(=O)[C@H](CCc2ccc(C(F)(F)F)c(F)c2)NC(=O)CN(C)C(=O)[C@H](CC2CCCCC2)N(C)C(=O)[C@@H]2CCN2C(=O)CN(C)C1=O [Compound 178] (cyclo([Aze][NMeCha][Sar][hPhe(3-F,4-CF3)]L[NMeAib]L[NMedβ3hAla][NMeL]I[Sar]))",< 6.30
10,CC[C@H](C)[C@@H]1NC(=O)[C@H](CC(C)C)N(C)C(=O)C[C@@H](C(=O)N(C)C)N(C)C(=O)[C@H](C2CCCC2)N(C)C(=O)C2(CCCC2)NC(=O)[C@H](Cc2cccc(Cl)c2)N(C)C(=O)[C@H](CCc2ccc(C(F)(F)F)c(Cl)c2)NC(=O)CN(C)C(=O)[C@H](CC2CCCCC2)N(C)C(=O)[C@@H]2CCN2C(=O)[C@H](C)N(C)C1=O [Compound 179] ([NMeL]I[NMeA][Aze][NMeCha][Sar][hPhe(3-Cl-4-CF3)][NMePhe(3-Cl)][Ac5c][NMeGly(cPent)][NMeD]-NMe2; lactam N-11),< 6.30
11,CC[C@H](C)[C@@H]1NC(=O)[C@H](CC(C)C)N(C)C(=O)C[C@@H](C(=O)N2CCCCC2)N(C)C(=O)[C@H](C(C)C)N(C)C(=O)C2(CCCC2)NC(=O)[C@@H]2CCCN2C(=O)[C@H](CCc2ccc(C(F)(F)F)c(Cl)c2)NC(=O)CN(C)C(=O)[C@H](CC2CCCCC2)N(C)C(=O)[C@@H]2CCN2C(=O)[C@H](CCC(=O)NC)N(C)C1=O [Compound 180] ([NMeL]I[NMeE](NHMe)[Aze][NMeCha][Sar][hPhe(3-Cl-4-CF3)]P[Ac5c][NMeV][NMeD]-Piperidide; lactam N-11),< 6.30
12,CC[C@H](C)[C@@H]1NC(=O)[C@H](CC(C)C)N(C)C(=O)C[C@@H](C)NC(=O)[C@H](C2CCC2)N(C)C(=O)C2(CCCC2)NC(=O)[C@@H]2CCCN2C(=O)[C@H](CCc2ccc(C(F)(F)F)c(Cl)c2)NC(=O)CN(C)C(=O)[C@H](CC2CCCCC2)N(C)C(=O)CN(C)C(=O)CN(C)C1=O [Compound 183] (cyclo([Ac5c][NMeGly(cBu)][d(β3hA)][NMeL]I[Sar][Sar][NMeCha][Sar][hPhe(3-Cl-4-CF3)]P)),< 6.30
13,CC[C@H](C)[C@@H]1NC(=O)[C@H](CC(C)C)N(C)C(=O)C[C@@H](C)NC(=O)[C@H](C(C)C)N(C)C(=O)C2(CCCC2)NC(=O)[C@@H]2CCCN2C(=O)[C@H](CCc2ccc(C(F)(F)F)c(Cl)c2)NC(=O)CN(C)C(=O)[C@H](CC2CCCCC2)N(C)C(=O)CN(C)C(=O)[C@@H]2CCCN2C1=O [Compound 185] (cyclo([Ac5c][NMeV][d(β3hA)][NMeL]IP[Sar][NMeCha][Sar][hPhe(3-Cl-4-CF3)]P)),< 6.30
14,CC[C@H](C)[C@@H]1NC(=O)[C@H](C)N(C)C(=O)C[C@@H](C)NC(=O)[C@H](C2CCCC2)N(C)C(=O)C2(CCCC2)NC(=O)[C@@H]2CCCN2C(=O)[C@H](CCc2ccc(C(F)(F)F)c(Cl)c2)NC(=O)CN(C)C(=O)[C@H](Cc2cccc(Cl)c2)N(C)C(=O)[C@@H]2CCCN2C(=O)CN(C)C1=O [Compound 186] (cyclo([Ac5c][NMeGly(cPent)][d(β3hA)][NMeA]I[Sar]P[NMePhe(3-Cl)][Sar][hPhe(3-Cl-4-CF3)]P)),< 6.30
15,CCC[C@H]1C(=O)N(C)CC(=O)N[C@@H](CCc2ccc(C(F)(F)F)c(Cl)c2)C(=O)N2CCC[C@H]2C(=O)NC2(CCCC2)C(=O)N(C)[C@@H](C2CCCCC2)C(=O)N(C)[C@H](C(=O)N2CCCCC2)CC(=O)N(C)[C@@H](CC(C)C)C(=O)N[C@@H]([C@@H](C)CC)C(=O)N(C)CC(=O)N(C)CC(=O)N1C [Compound 187] ([NMeL]I[Sar][Sar][NMeNva][Sar][hPhe(3-Cl-4-CF3)]P[Ac5c][NMeChg][NMeD]-Piperidide; lactam N-11),< 6.30
16,CC[C@H](C)[C@@H]1NC(=O)[C@H](CC(C)C)N(C)C(=O)C[C@@H](C(=O)N2CCCCC2)N(C)C(=O)[C@H](CC(C)C)NC(=O)C(C)(C)N(C)C(=O)[C@H](Cc2ccc(OC)cc2)NC(=O)[C@H](Cc2cccc(I)c2)NC(=O)CN(C)C(=O)[C@H](Cc2ccc(C)cc2)N(C)C(=O)[C@@H]2CCN2C(=O)CN(C)C1=O [Compound 188] ([NMeL]I[Sar][Aze][NMePhe(4-Me)][Sar][Phe(3-I)]Y(Me)[NMeAib]L[NMeD]-Piperidide; lactam N-11),< 6.30
17,CC[C@H](C)[C@@H]1NC(=O)[C@H](CC(C)C)N(C)C(=O)C[C@@H](C(=O)N(C)C)N(C)C(=O)[C@H](C2CCCC2)N(C)C(=O)C2(CCCC2)NC(=O)[C@@H](C)NC(=O)[C@H](CCc2ccc(C(F)(F)F)c(Cl)c2)NC(=O)CN(C)C(=O)[C@H](CC2CCCCC2)N(C)C(=O)[C@@H]2CCN2C(=O)[C@H](C)N(C)C1=O [Compound 191] ([NMeL]I[NMeA][Aze][NMeCha][Sar][hPhe(3-Cl-4-CF3)][dA][Ac5c][NMeGly(cPent)][NMeD]-NMe2; lactam N-11),< 6.30
18,CC[C@H](C)[C@@H]1NC(=O)[C@H](C)N(C)C(=O)C[C@@H](C)NC(=O)[C@H](C2CCCC2)N(C)C(=O)C2(CCCC2)NC(=O)[C@@H]2CCCN2C(=O)[C@H](CCc2ccc(C(F)(F)F)c(Cl)c2)NC(=O)CN(C)C(=O)[C@H](Cc2cccc(F)c2)N(C)C(=O)[C@@H]2CCCN2C(=O)CN(C)C1=O [Compound 194] (cyclo([Ac5c][NMeGly(cPent)][d(β3hA)][NMeA]I[Sar]P[NMePhe(3-F)][Sar][hPhe(3-Cl-4-CF3)]P)),< 6.30
19,CC[C@H](C)[C@@H]1NC(=O)[C@H](C)N(CC)C(=O)C[C@@H](C)NC(=O)[C@H](C(C)C)N(C)C(=O)C2(CCCC2)NC(=O)[C@@H]2CCCN2C(=O)[C@H](CCc2ccc(C(F)(F)F)c(Cl)c2)NC(=O)CN(C)C(=O)[C@H](CC2CCCCC2)N(C)C(=O)CN(C)C(=O)CN(C)C1=O [Compound 196] (cyclo([Ac5c][NMeV][d(β3hA)][NEtAla]I[Sar][Sar][NMeCha][Sar][hPhe(3-Cl-4-CF3)]P)),< 6.30
